In brackets after ≈: the same amount, converted by molar mass. Activity calls are given as the source filed them. The calls are words filed in the database; no cut-off is given here.
Assays:
[1] = Solubility of the compound in phosphate buffered saline at pH 7.4; assay type: physicochemical
CYP3A4 = CYP3A4 (Homo sapiens, UniProt P08684); test: Inhibition of Homo sapiens (human) recombinant CYP3A4 at 10 uM by fluorogenic assay; assay type: ADME
[2] = molecular target: Sodium channel protein type 9 subunit alpha (Homo sapiens, UniProt Q15858); test: Inhibition of Homo sapiens (human) NaV1.7 expressed in HEK293 cells assessed as decrease in [14C]guanidinium influx after 2 hr by liquid scintillation counting analysis; assay type: cell-based
Chain of Sodium channel protein type 9 subunit alpha (Q15858 whole entry): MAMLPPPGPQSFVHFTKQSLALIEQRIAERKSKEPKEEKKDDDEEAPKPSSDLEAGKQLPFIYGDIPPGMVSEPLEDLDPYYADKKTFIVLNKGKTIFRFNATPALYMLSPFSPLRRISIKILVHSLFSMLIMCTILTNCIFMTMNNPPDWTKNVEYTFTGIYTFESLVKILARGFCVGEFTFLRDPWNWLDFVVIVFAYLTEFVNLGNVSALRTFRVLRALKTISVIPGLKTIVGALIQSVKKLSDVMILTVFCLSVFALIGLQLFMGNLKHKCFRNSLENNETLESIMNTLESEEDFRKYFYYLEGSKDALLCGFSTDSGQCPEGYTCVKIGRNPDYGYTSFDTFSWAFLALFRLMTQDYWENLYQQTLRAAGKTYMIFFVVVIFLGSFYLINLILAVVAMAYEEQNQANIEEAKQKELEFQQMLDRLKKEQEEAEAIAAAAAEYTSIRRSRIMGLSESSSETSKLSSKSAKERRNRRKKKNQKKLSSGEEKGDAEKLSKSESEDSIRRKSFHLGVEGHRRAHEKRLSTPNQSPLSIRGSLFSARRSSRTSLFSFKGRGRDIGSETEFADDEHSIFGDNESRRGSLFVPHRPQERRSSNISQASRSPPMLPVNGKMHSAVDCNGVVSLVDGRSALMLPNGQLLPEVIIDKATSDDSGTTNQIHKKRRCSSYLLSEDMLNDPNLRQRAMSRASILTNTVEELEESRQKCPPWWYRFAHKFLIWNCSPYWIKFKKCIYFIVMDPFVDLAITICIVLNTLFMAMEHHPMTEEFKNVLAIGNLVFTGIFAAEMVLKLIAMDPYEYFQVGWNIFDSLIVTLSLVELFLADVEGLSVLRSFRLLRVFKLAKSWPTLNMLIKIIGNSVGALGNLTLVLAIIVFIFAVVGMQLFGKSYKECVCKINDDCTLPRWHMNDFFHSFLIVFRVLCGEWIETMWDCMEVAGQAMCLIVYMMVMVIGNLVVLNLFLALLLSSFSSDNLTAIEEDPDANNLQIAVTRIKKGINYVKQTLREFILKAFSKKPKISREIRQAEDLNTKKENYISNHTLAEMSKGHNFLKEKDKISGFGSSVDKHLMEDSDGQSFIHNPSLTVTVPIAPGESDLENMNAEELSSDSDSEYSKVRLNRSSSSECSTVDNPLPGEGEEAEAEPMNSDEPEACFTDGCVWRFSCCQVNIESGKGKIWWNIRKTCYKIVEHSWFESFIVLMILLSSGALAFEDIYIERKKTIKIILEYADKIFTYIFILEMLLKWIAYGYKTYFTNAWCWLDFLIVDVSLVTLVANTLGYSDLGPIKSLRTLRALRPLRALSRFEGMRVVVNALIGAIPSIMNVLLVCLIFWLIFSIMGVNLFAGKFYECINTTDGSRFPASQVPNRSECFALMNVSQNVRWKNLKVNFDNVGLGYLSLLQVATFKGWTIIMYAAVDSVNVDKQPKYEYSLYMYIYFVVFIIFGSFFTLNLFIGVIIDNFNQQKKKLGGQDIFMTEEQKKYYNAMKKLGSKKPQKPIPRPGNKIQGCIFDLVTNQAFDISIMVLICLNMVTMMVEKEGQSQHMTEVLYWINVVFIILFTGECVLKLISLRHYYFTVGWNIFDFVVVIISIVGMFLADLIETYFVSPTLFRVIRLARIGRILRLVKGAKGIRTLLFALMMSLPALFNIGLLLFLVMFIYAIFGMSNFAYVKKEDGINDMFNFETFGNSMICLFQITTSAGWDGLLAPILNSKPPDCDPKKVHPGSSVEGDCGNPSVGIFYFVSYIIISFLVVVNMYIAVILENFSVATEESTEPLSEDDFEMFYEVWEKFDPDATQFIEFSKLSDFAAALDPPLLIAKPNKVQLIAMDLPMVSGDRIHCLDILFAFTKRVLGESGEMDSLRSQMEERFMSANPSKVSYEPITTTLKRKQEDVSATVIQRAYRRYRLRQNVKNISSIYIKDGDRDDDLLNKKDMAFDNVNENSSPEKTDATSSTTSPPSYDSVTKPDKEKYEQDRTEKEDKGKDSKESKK

Rattus norvegicus [3] = test: Analgesic activity in CFA-induced Rattus norvegicus (rat) inflammatory pain model assessed as reduction of mechanical allodynia at 10 mg/kg, ip after 1 hr by von Frey test; assay type: functional, organism-based; set-up: dose 10 mg/kg
[4] = Metabolic stability in Rattus norvegicus (rat) liver microsomes assessed as compound remaining after 30 min; assay type: ADME; conditions: read-out: Stability
Rattus norvegicus [5] = test: Analgesic activity in CFA-induced Rattus norvegicus (rat) inflammatory pain model assessed as reduction of mechanical allodynia at 40 mg/kg, po after 1 hr by von Frey test; assay type: functional, organism-based; set-up: dose 40 mg/kg
Rattus norvegicus [6] = test: Analgesic activity in CFA-induced Rattus norvegicus (rat) inflammatory pain model assessed as reduction of mechanical allodynia at 10 mg/kg, po after 1 hr by von Frey test relative to vehicle-treated control; assay type: functional; set-up: scale not given: the % may be the effect or the level left
[7] = Clearance in Sprague-Dawley Rattus norvegicus (rat) at 1 mg/kg, iv; assay type: ADME, organism-based; set-up: dose 1 mg/kg, route intravenous; conditions: in vivo
[8] = Oral bioavailability in Sprague-Dawley Rattus norvegicus (rat) at 10 mg/kg; assay type: ADME, organism-based; conditions: in vivo
[9] = Volume of distribution at steady state in Sprague-Dawley Rattus norvegicus (rat) at 1 mg/kg, iv; assay type: ADME, organism-based; set-up: dose 1 mg/kg, route intravenous; conditions: in vivo, read-out: Vdss
[10] = Terminal half life in Sprague-Dawley Rattus norvegicus (rat) at 1 mg/kg, iv; assay type: ADME, organism-based; set-up: dose 1 mg/kg, route intravenous; conditions: in vivo, read-out: beta t1/2 (converted)
[11] = Tmax in Sprague-Dawley Rattus norvegicus (rat) at 10 mg/kg, po; assay type: ADME, organism-based; set-up: dose 10 mg/kg, route oral; conditions: in vivo
[12] = AUClast in Sprague-Dawley Rattus norvegicus (rat) at 1 mg/kg, iv; assay type: ADME, organism-based; set-up: time 0 - last, dose 1 mg/kg, route intravenous; conditions: plasma
[13] = Cmax in Sprague-Dawley Rattus norvegicus (rat) at 1 mg/kg, iv; assay type: ADME, organism-based; set-up: dose 1 mg/kg, route intravenous; conditions: in vivo
[14] = AUClast in Sprague-Dawley Rattus norvegicus (rat) at 10 mg/kg, po; assay type: ADME, organism-based; set-up: time 0 - last, dose 10 mg/kg, route oral; conditions: plasma
[15] = Cmax in Sprague-Dawley Rattus norvegicus (rat) at 10 mg/kg, po; assay type: ADME, organism-based; set-up: dose 10 mg/kg, route oral; conditions: in vivo
[16] = Metabolic stability in Canis lupus familiaris (dog) hepatocytes assessed as compound remaining after 2 hr; assay type: ADME, cell-based, Hepatocyte; conditions: read-out: Stability
[17] = Metabolic stability in Homo sapiens (human) hepatocytes assessed as compound remaining after 2 hr; assay type: ADME, cell-based, Hepatocyte; conditions: read-out: Stability
[18] = Metabolic stability in Rattus norvegicus (rat) hepatocytes assessed as compound remaining after 2 hr; assay type: ADME, cell-based, Hepatocyte; conditions: read-out: Stability
[19] = Apparent permeability across apical to basolateral side in Homo sapiens (human) Caco2 cells; assay type: ADME, cell-based; conditions: Caco-2
[20] = Apparent permeability across basolateral to apical side in Homo sapiens (human) Caco2 cells; assay type: ADME, cell-based; conditions: Caco-2
[21] = Cytotoxicity against Homo sapiens (human) HepG2 cells assessed as cell viability after 16 hr; assay type: cell-based; conditions: read-out: Activity
[22] = Plasma protein binding in Rattus norvegicus (rat); assay type: ADME, cell-free; conditions: read-out: PPB (converted)
hERG (KCNH2) = hERG (KCNH2) (Homo sapiens, UniProt Q12809); test: Inhibition of Homo sapiens (human) ERG expressed in HEK293 cells at 10 uM after 3 hr by rubidium efflux assay; assay type: cell-based; conditions: HEK293 cells expressing human ERG
Chain of hERG (KCNH2) (Q12809 whole entry): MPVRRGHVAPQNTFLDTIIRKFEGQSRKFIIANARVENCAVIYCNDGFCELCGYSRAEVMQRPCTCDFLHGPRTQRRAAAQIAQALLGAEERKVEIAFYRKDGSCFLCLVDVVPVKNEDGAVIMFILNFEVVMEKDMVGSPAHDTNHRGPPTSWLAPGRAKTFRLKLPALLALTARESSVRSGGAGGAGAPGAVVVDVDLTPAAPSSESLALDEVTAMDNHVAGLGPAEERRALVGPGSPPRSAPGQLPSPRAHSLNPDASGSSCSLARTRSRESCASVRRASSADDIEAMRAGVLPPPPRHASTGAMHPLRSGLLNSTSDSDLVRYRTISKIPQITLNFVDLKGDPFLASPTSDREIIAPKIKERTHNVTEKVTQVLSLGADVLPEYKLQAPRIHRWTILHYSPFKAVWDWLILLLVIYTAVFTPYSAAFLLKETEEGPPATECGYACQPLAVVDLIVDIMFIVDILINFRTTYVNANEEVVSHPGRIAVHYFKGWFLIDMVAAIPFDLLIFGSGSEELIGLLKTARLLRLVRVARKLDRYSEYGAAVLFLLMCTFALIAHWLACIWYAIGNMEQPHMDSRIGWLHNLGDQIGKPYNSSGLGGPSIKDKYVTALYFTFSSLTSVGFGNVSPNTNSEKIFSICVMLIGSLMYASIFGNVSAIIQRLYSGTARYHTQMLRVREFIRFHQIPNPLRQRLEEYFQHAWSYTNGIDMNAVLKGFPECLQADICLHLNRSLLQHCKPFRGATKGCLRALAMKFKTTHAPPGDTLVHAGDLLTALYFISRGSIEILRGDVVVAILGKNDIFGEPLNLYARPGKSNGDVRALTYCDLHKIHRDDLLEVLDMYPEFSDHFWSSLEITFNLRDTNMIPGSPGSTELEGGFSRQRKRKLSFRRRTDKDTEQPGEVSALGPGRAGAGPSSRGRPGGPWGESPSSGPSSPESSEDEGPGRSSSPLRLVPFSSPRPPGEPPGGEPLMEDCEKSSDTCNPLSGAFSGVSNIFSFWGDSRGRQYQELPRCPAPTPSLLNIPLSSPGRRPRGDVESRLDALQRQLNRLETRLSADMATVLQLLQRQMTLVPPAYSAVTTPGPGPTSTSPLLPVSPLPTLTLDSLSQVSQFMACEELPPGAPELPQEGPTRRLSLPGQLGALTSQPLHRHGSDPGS

Cytochrome P450 3A4 = Cytochrome P450 3A4 (Homo sapiens, UniProt P08684); test: Inhibition of Homo sapiens (human) recombinant CYP3A4 by fluorogenic assay; assay type: ADME
Chain of Cytochrome P450 3A4 (P08684 whole entry): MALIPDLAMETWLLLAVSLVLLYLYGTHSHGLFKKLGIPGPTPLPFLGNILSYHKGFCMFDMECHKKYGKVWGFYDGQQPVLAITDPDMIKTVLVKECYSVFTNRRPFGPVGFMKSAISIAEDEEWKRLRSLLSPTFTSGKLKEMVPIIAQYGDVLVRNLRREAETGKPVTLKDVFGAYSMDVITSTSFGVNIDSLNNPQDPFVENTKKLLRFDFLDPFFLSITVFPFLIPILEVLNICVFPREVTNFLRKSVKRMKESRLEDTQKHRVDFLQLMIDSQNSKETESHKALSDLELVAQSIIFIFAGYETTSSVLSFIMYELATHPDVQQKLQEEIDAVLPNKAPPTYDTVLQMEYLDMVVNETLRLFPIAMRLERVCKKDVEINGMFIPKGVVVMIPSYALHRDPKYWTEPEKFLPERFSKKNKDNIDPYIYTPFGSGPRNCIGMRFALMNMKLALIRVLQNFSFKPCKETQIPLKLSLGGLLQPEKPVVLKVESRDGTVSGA

Chain of CYP3A4 (P08684 whole entry): as above

Row | Structure (SMILES) | solubility [1] [µg/mL] | inhibition at 10 µM (CYP3A4) [%] | IC50 [2] [nM] | also measured
1 | COc1ccc2c(c1)OCC21C(=O)N(Cc2ccccn2)c2ccccc21 (stereo unspecified) | 25 (≈ 69.8 µM) | 29 | 8 | 
2 | COc1cc2c(cc1F)C1(CO2)C(=O)N(Cc2ccc(C(F)(F)F)o2)c2ccccc21 (stereo unspecified) | < 5 | 69 | 430 | 
3 | COc1cc2c(cn1)OCC21C(=O)N(CC2CCCCO2)c2ccccc21 (stereo unspecified) | 67 (≈ 183 µM) | 22 | 100 | 
4 | CCCCCN1C(=O)C2(COc3cc(OC)ccc32)c2ccccc21 (stereo unspecified) | < 5 | 64 | 60 | 
5 | COc1ccc2c(n1)C1(CO2)C(=O)Nc2ccccc21 (stereo unspecified) | 52 (≈ 194 µM) | 27 | > 1000 | 
6 | COc1cc2c(cn1)OCC21C(=O)N(C[C@@H]2CCCO2)c2ccccc21 (stereo partly specified) | 61 (≈ 173 µM) | 22 | 20 | Activity (Rattus norvegicus [3]): inactive; remaining at 0.5 h [4]: 8%; Activity (Rattus norvegicus [5]): inactive
7 | COc1ccc2c(n1)C1(CO2)C(=O)N(Cc2ccc(C(F)(F)F)o2)c2ccccc21 (stereo unspecified) | < 5 | 26 | 130 | Activity (Rattus norvegicus [6]): 59%; clearance [7]: 66.7 mL/min/kg; bioavailability [8]: 3.2%; Vd [9]: 4.1 L/kg; half-life [10]: 1.9 h; Tmax [11]: 4 h; AUC(0-t) [12]: 244 ng·h/mL; Cmax [13]: 884 ng/mL; AUC(0-t) [14]: 77.1 ng·h/mL; Cmax [15]: 12.7 ng/mL; remaining at 2 h [16]: 49%; remaining at 2 h [17]: 29%; remaining at 2 h [18]: 18%; Papp A→B [19]: 9.1 ×10⁻⁶ cm/s; Papp B→A [20]: 8.8 ×10⁻⁶ cm/s; viability at 16 h [21]: > 96%; fraction unbound [22]: 0.05; inhibition at 3 h, 10 µM (hERG (KCNH2)): 7.5%; IC50 (Cytochrome P450 3A4): > 10000 nM
8 | COc1ccc2c(c1)OCC21C(=O)N(C[C@H]2CCCO2)c2ccccc21 (stereo partly specified) | 45 (≈ 128 µM) | 18 | 110 | 
9 | COc1cc2c(cn1)OCC21C(=O)N(C[C@H]2CCCO2)c2ccccc21 (stereo partly specified) | < 5 | 14 | 50 | 
10 | COc1ccc2c(n1)C1(CO2)C(=O)N(Cc2ccc3c(c2)OCCO3)c2ccccc21 (stereo unspecified) | 5 (≈ 12 µM) | 63 | 30 | 
11 | COc1cc2c(cn1)OCC21C(=O)Nc2ccccc21 (stereo unspecified) | 52 (≈ 194 µM) | 13 | 350 | 
12 | COc1cc2c(cc1C)C1(CO2)C(=O)N(Cc2ccccn2)c2ccccc21 (stereo unspecified) | 7 (≈ 18.8 µM) | 61 | 1150 | 
13 | COc1ccc2c(n1)C1(CO2)C(=O)N(Cc2ncccc2C(F)(F)F)c2ccccc21 (stereo unspecified) | < 5 | 49 | > 250 | 
14 | COc1ccc2c(n1)C1(CO2)C(=O)N(Cc2csc(C(C)C)n2)c2ccccc21 (stereo unspecified) | 5 (≈ 12.3 µM) | 70 | 60 | 
15 | COc1cc2c(cc1OC)C1(CO2)C(=O)N(Cc2ccc(Cl)s2)c2ccccc21 (stereo unspecified) | 8 (≈ 18.7 µM) | 75 | 700 | 
16 | COc1cc2c(cn1)OCC21C(=O)N(Cc2ccc(C(F)(F)F)o2)c2ccccc21 (stereo unspecified) | < 5 | 74 | 4 | 
17 | CCCCCN1C(=O)C2(COc3cc(F)c(F)cc32)c2ccccc21 (stereo unspecified) | < 5 | 50 | 240 | 
18 | COCCOc1ccc2c(c1)OCC21C(=O)N(Cc2ccccn2)c2ccccc21 (stereo unspecified) | 46 (≈ 114 µM) | 22 | 150 | 
19 | COc1cc2c(cc1F)C1(CO2)C(=O)N(Cc2ccccn2)c2ccccc21 (stereo unspecified) | 15 (≈ 39.9 µM) | 36 | 190 | 
20 | COc1cc2c(cc1F)OCC21C(=O)N(Cc2ccccn2)c2ccccc21 (stereo unspecified) | 36 (≈ 95.6 µM) | 16 | 470 | 
21 | Cc1cc2c(cc1C)C1(CO2)C(=O)N(Cc2ccccn2)c2ccccc21 (stereo unspecified) | 6 (≈ 16.8 µM) | 43 | 230 | 
22 | N#Cc1cc2c(cc1F)OCC21C(=O)N(Cc2ncccc2C(F)(F)F)c2ccccc21 (stereo unspecified) | < 5 | 10 | > 1000 | 
23 | COc1ccc2c(n1)C1(CO2)C(=O)N(Cc2ccccn2)c2ccccc21 (stereo unspecified) | < 5 | 42 | 180 | 
24 | CCCCCN1C(=O)C2(COc3cc4c(cc32)OCO4)c2ccccc21 (stereo unspecified) |  | 97 |  | 
25 | O=C1N(Cc2ccccn2)c2ccccc2C12COc1cc(F)c(F)cc12 (stereo unspecified) | 13 (≈ 35.7 µM) | 30 | 270 | 
26 | COc1ccc2c(n1)C1(CO2)C(=O)N(Cc2ccc(Cl)s2)c2ccccc21 (stereo unspecified) | < 5 | 73 | 60 | 
27 | COc1ccc2c(c1)OCC21C(=O)N(CC2CCCCO2)c2ccccc21 (stereo unspecified) | 14 (≈ 38.3 µM) | 35 | 10 | 

Source: ChEMBL document CHEMBL3045789, “Tetracyclic spirooxindole blockers of hNaV1.7: activity in vitro and in CFA-induced inflammatory pain model” (Med Chem Res, 2013)
